Target: Full length KDM2B (Homo sapiens (Human), UniProt Q8NHM5)
Assay: KDM2B TR-FRET assay for determining inhibitor IC50
Assay type: biochemical
Settings: TR-FRET (HTRF), biotin-H3K36me2 peptide substrate, 2-OG 0.3 μM or 6 μM
Excerpt: KDM2B TR-FRET Assay for Determining Inhibitor IC50
The KDM2B TR-FRET Assay described above represents an additional embodiment of the invention.

Full length KDM2B, sequence (Q8NHM5 whole entry): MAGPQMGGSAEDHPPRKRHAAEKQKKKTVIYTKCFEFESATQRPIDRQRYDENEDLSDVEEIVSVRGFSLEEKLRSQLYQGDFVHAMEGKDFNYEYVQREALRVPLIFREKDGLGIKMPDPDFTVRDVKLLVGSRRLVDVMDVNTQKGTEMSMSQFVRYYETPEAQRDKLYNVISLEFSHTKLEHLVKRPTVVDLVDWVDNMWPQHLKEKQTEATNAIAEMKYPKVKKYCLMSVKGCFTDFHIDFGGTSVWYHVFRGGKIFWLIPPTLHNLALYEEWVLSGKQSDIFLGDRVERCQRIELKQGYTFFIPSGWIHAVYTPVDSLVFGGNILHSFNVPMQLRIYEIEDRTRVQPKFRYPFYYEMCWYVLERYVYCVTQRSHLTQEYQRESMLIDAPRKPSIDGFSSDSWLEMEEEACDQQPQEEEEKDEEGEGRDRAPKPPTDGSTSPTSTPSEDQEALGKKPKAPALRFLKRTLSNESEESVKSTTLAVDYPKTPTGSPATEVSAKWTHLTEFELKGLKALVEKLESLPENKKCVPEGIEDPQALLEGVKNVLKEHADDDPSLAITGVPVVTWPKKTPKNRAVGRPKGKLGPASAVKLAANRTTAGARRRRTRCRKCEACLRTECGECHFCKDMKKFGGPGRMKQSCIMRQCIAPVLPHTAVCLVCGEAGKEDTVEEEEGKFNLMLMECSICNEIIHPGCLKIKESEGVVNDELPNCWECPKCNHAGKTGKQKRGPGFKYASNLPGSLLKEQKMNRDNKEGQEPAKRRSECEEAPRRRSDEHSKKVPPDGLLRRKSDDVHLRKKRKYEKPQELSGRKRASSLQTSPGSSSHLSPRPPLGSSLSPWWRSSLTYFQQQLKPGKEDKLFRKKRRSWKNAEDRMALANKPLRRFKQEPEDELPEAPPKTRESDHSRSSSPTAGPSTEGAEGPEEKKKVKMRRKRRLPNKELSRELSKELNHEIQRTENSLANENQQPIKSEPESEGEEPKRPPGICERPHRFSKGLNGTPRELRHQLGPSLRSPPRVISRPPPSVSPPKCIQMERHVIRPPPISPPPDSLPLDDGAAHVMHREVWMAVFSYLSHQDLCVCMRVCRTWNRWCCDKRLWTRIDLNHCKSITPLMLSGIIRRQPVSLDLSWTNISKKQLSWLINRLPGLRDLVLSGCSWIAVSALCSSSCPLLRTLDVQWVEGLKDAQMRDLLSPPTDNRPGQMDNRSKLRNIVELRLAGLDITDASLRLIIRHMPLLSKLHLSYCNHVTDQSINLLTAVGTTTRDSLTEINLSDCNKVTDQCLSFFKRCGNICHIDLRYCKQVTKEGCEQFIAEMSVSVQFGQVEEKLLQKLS

**Q.** `CNC(=O)c1cc(C(=O)C2CCCN(C3CCC3)C2)cc2ccccc12` (stereo not shown) [Example 42, 3-(1-cyclobutylpiperidine-3-carbonyl)-N-methyl-naphthalene-1-carboxamide] was tested. Which IC50 did it give?
**A.** 243 nM

**Q.** How did the IC50 turn out when `N#Cc1cc(C(=O)C2CCCN(CC3CC3)C2)cc2ccccc12` (stereo not shown) [Example 43, 3-[1-(cyclopropylmethyl)piperidine-3-carbonyl]naphthalene-1-carbonitrile] was run?
**A.** 143 nM

**Q.** Which IC50 does the source give for `N#Cc1cc(C(=O)C2CCCN(C3CCC3)C2)cc2ccccc12` (stereo not shown) [Example 44, 3-(1-cyclobutylpiperidine-3-carbonyl)naphthalene-1-carbonitrile] here?
**A.** 101 nM

**Q.** For `N#Cc1cc(C(=O)C2CCCN(C3CCCC3)C2)cc2ccccc12` (stereo not shown) [Example 45, 3-(1-cyclopentylpiperidine-3-carbonyl)naphthalene-1-carbonitrile], which IC50 is on record?
**A.** 267 nM

**Q.** For `NC(=O)c1cc(C(=O)C2CCCN(C3CCCC3)C2)cc2ccccc12` (stereo not shown) [Example 46, 3-(1-cyclopentylpiperidine-3-carbonyl)naphthalene-1-carboxamide], which IC50 is on record?
**A.** 209 nM

**Q.** For `NC(=O)c1cc(C(=O)C2CCCN(C3CCC3)C2)cc2ccccc12` (stereo not shown) [Example 47, 3-(1-cyclobutylpiperidine-3-carbonyl)naphthalene-1-carboxamide], which IC50 is on record?
**A.** 99.7 nM

**Q.** Which IC50 does the source give for `NC(=O)c1cc(C(=O)C2CCCN(CC3CC3)C2)cc2ccccc12` (stereo not shown) [Example 48, 3-[1-(cyclopropylmethyl)piperidine-3-carbonyl]naphthalene-1-carboxamide] here?
**A.** 180 nM

**Q.** How did the IC50 turn out when `COc1ccc2cc(C(=O)C3CCCN(CC4CC4)C3)ccc2c1C` (stereo not shown) [Example 49, [1-(cyclopropylmethyl)-3-piperidyl]-(6-methoxy-5-methyl-2-naphthyl)methanone] was run?
**A.** 163 nM

**Q.** For `CCCN1CCCC(C(=O)c2ccc3c(C)c(OC)ccc3c2)C1` (stereo not shown) [Example 50, (6-methoxy-5-methyl-2-naphthyl)-(1-propyl-3-piperidyl)methanone], which IC50 is on record?
**A.** 26 nM

**Q.** For `COc1ccc2cc(C(=O)C3CCCN(C4CCCC4)C3)ccc2c1C` (stereo not shown) [Example 51, (1-cyclopentyl-3-piperidyl)-(6-methoxy-5-methyl-2-naphthyl)methanone], which IC50 is on record?
**A.** 118 nM

**Q.** How did the IC50 turn out when `COc1ccc2cc(C(=O)C3CCCN(C4CCC4)C3)ccc2c1C` (stereo not shown) [Example 52, (1-cyclobutyl-3-piperidyl)-(6-methoxy-5-methyl-2-naphthyl)methanone] was run?
**A.** 39.4 nM

**Q.** `COc1ccc2cc(C(=O)C3CCCN(CC4CC4)C3)ccc2c1CC#N` (stereo not shown) [Example 53, 2-[6-[1-(cyclopropylmethyl)piperidine-3-carbonyl]-2-methoxy-1-naphthyl]acetonitrile] was tested. Which IC50 did it give?
**A.** 33.5 nM

**Q.** With `COc1ccc2cc(C(=O)C3CCCN(C4CCCC4)C3)ccc2c1CC#N` (stereo not shown) [Example 54, 2-[6-(1-cyclopentylpiperidine-3-carbonyl)-2-methoxy-1-naphthyl]acetonitrile] as the molecule, how does the IC50 read?
**A.** 39.5 nM

**Q.** `COc1ccc2cc(C(=O)C3CCCN(C4CCC4)C3)ccc2c1CC#N` (stereo not shown) [Example 55, 2-[6-(1-cyclobutylpiperidine-3-carbonyl)-2-methoxy-1-naphthyl]acetonitrile] was tested. Which IC50 did it give?
**A.** 13.2 nM

**Q.** Which IC50 does the source give for `CCCN1CCCC(C(=O)c2ccc3c(CC#N)c(OC)ccc3c2)C1` (stereo not shown) [Example 56, 2-[2-methoxy-6-(1-propylpiperidine-3-carbonyl)-1-naphthyl]acetonitrile] here?
**A.** 270 nM

**Q.** Which IC50 does the source give for `O=C(c1cc(CO)c2ccccc2c1)C1CCCN(C2CCCC2)C1` (stereo not shown) [Example 57, (1-cyclopentyl-3-piperidyl)-[4-(hydroxymethyl)-2-naphthyl]methanone] here?
**A.** 125 nM

**Q.** `O=C(c1cc(CO)c2ccccc2c1)C1CCCN(C2CCC2)C1` (stereo not shown) [Example 58, (1-cyclobutyl-3-piperidyl)-[4-(hydroxymethyl)-2-naphthyl]methanone] was tested. Which IC50 did it give?
**A.** 47.6 nM

**Q.** `Cc1cccc2ccc(C(=O)C3CCCN(CC4CC4)C3)cc12` (stereo not shown) [Example 59, [1-(cyclopropylmethyl)-3-piperidyl]-(8-methyl-2-naphthyl)methanone] was tested. Which IC50 did it give?
**A.** 169 nM

**Q.** `CCCN1CCCC(C(=O)c2ccc3cccc(C)c3c2)C1` (stereo not shown) [Example 60, (8-methyl-2-naphthyl)-(1-propyl-3-piperidyl)methanone] was tested. Which IC50 did it give?
**A.** 125 nM
